{
  "source": "patent EP0960886B1",
  "about": "“Peptide T and related peptides in the treatment of inflammation, including multiple sclerosis” (priority 1992, dated 1993)",
  "key": {"[1]": {"assay": "Treatment of multiple sclerosis patients, case reports (Examples 1 to 4)", "format": "in vivo, human", "method": "[…] They were treated with prednisone and later with physiotherapy, with little effect. […] Tone was increased in both lower limbs and they had bilateral ankle clonus. Deep tendon reflexes were 2+ in the arms, 3+ in both knees and ankles and the plantar responses were extensor.\nThey were started on Peptide T, 8.5 mg subcutaneously daily. […] Their frequency of nocturia was reduced, fine motor control improved, stuttering decreased, their legs were less spastic and they could stand with minimal support. […] The patient has remained stable rather than following their normal progressive downhill course for the months they have remained on Peptide T.\nA person was diagnosed with optic neuritis secondary to multiple sclerosis after presenting with numbness, impaired motor function, and blurred vision (20/300 bilaterally). Their somatic neurological examination was within normal limits. Minor episodes of numbness and impaired speech, balance and co-ordination had occurred over 6 months, as well as headache and loss of vision.\nPeptide T therapy was started.\nA person with their first episode of multiple sclerosis as manifest by optic neuritis and complete blindness in the right eye for 2 weeks, numbness in their right leg and then both legs. […] They had worsening of their ataxias with blurred vision and oscillopsia and was given prednisone 80 mg per day. […] Findings were typical of demyelination consistent with MS. […] The tone was increased in their lower limbs and they had non-sustained ankle clonus bilaterally. Their knee jerk was increased on the right compared to the left. Plantar responses were both upgoing. They had decreased position, vibration, light touch and cold sensation in the feet compared to the hands.\nAbout 2 months later the patient was started on Peptide T 8.5 mg subcutaneously daily. […] They experienced improved feelings in their fingers, fine movements of their hands and improved cognitive function.\nA person with a history of dizziness, ataxia, episodes of vertigo, impairment of motor function and generalised weakness of the legs was treated with dilantin and admitted to hospital. […] They were reassessed about 2 years later for episodes of dizziness, and complaints of leg spasms. […] Plantar response was downgoing and they had upwards gaze vertical nystagmus as previously noted."}, "[2]": {"tested_on": "Human umbilical vein endothelial cells", "assay": "TNF-induced tissue factor expression on endothelial cells, ELISA (Example 6)", "format": "cell-based", "conditions": "100 units/ml human recombinant TNF, 4 h; Peptide T 0.5 to 100 µg/ml; triplicate cultures", "method": "Human umbilical vein endothelial cells were cultured in M199 medium supplemented with 10% foetal calf serum, endothelial cell growth factor, penicillin, streptomycin and L-glutamine in 96-well dishes using a modification of the procedure of Bevilaqua et al, Proc. Natl. Acad. Sci. USA 83 4533 (1986)). TNF treatment of cultures (100 units.ml) was for 4 h at 37°C in the presence of growth medium, after which the cells were washed and fixed. Cultures were, also treated with Peptide T + TNF or Peptide T alone. In these cultures Peptide T was at a concentration which ranged from 0.5 to 100 µg/ml. Tissue factor expression by the endothelial cells treated with TNF with or without peptide T was determined in an ELISA using a monoclonal antibody which neutralises the activity of human tissue factor (Carlbiochem A/S). Bound anti-tissue factor antibody was detected using peroxidase-conjugated rabbit anti-mouse Ig and the substrate ABST. Colour intensity was determined by the optical density of each well at 405nm."}, "[3]": {"tested_on": "PBMC", "assay": "Antigen (measles, mumps and rubella vaccine) induced PBMC proliferation (Example 11)", "format": "cell-based, human", "conditions": "without Peptide T 3.26 ± 0.55", "method": "PBMC were incubated as described in relation to Table III in Example 9 in the presence of live, attenuated measles, mumps and rubella vaccine (Merck Sharp and Dohme, Canada) at a final dilution of 1:20. Peptide T was added either on day 1 of incubation or on a daily basis. Results are expressed as a proliferation index ± standard deviation."}, "[4]": {"tested_on": "Molt-4 cells", "assay": "PBMC mediated killing of Molt-4 cells", "format": "cell-based, human", "conditions": "Peptide T added on the first day of a four day culture", "description": "When PBMC are mixed with allogeneic Molt-4 cells the growth of Molt-4 is inhibited (Figure 6). Alloreactive PBMC recognise Molt-4 as foreign and generate cytotoxic effector cells that kill Molt-4. Molt-4 is not a cytotoxic cell line and can not generate alloreactive effector cells. […] It is not possible to distinguish growth of alloreactive T cells from the growth of Molt-4 survivors since neither the growth of alloreactive T cells (Figure 5) nor the growth of Molt-4 (Table IX) would be affected by Peptide T."}},
  "data": [
    {"smiles": "C[C@@H](N)C(=O)N[C@@H](CO)C(=O)N[C@H](C(=O)N[C@H](C(=O)N[C@H](C(=O)N[C@@H](CC(N)=O)C(=O)N[C@@H](Cc1ccc(O)cc1)C(=O)N[C@H](C(N)=O)[C@@H](C)O)[C@@H](C)O)[C@@H](C)O)[C@@H](C)O", "note": "[Peptide T, D-Ala-Ser-Thr-Thr-Thr-Asn-Tyr-Thr-NH2]", "values": [
      {"measurement": "intellectual and motor functioning", "setting": "[1]; Example 1: person with MS, 8.5 mg subcutaneously daily, within a few weeks, sustained over 6 months", "result": "marked symptomatic improvement"},
      {"measurement": "visual acuity bilaterally", "setting": "[1]; Example 2: person, optic neuritis secondary to MS, six days after start, before therapy 20/300 bilaterally", "result": "21/30"},
      {"measurement": "fatigue, ataxia and fine motor function after restarting", "setting": "[1]; Example 3: after stopping and restarting Peptide T", "result": "remarkable improvement"},
      {"measurement": "patient-reported symptoms after start of therapy", "setting": "[1]; Example 3: person with MS, 8.5 mg subcutaneously daily, within 1 to 2 weeks", "result": "subjective improvement"},
      {"measurement": "patient-reported symptoms", "setting": "[1]; Example 4: person, 8.5 mg subcutaneously daily, within 10 days", "result": "increased energy and intellectual function, and improved vision"},
      {"measurement": "expression of tissue factor on endothelial cells", "setting": "[2]", "result": "inhibited"},
      {"measurement": "Proliferation Index ± S.D.", "setting": "[3]; Peptide T added Daily, 10^-7 Mol/L", "result": "1.83 ± 0.36"},
      {"measurement": "Proliferation Index ± S.D.", "setting": "[3]; Peptide T added Daily, 10^-9 Mol/L", "result": "0.98 ± 0.16"},
      {"measurement": "Proliferation Index ± S.D.", "setting": "[3]; Peptide T added Daily, 10^-11 Mol/L", "result": "1.56 ± 0.14"},
      {"measurement": "Proliferation Index ± S.D.", "setting": "[3]; Peptide T added Daily, 10^-13 Mol/L", "result": "1.38 ± 0.51"},
      {"measurement": "Proliferation Index ± S.D.", "setting": "[3]; Peptide T added Daily, 10^-15 Mol/L", "result": "1.56 ± 0.61"},
      {"measurement": "Proliferation Index ± S.D.", "setting": "[3]; Peptide T added Daily, 10^-17 Mol/L", "result": "1.60 ± 0.60"},
      {"measurement": "Proliferation Index ± S.D.", "setting": "[3]; Peptide T added Daily, 10^-19 Mol/L", "result": "2.27 ± 1.09"},
      {"measurement": "Proliferation Index ± S.D.", "setting": "[3]; Peptide T added Day 1, 10^-7 Mol/L", "result": "4.02 ± 0.78"},
      {"measurement": "Proliferation Index ± S.D.", "setting": "[3]; Peptide T added Day 1, 10^-9 Mol/L", "result": "1.91 ± 0.46"},
      {"measurement": "Proliferation Index ± S.D.", "setting": "[3]; Peptide T added Day 1, 10^-11 Mol/L", "result": "5.35 ± 1.46"},
      {"measurement": "Proliferation Index ± S.D.", "setting": "[3]; Peptide T added Day 1, 10^-13 Mol/L", "result": "5.46 ± 1.37"},
      {"measurement": "Proliferation Index ± S.D.", "setting": "[3]; Peptide T added Day 1, 10^-15 Mol/L", "result": "5.56 ± 0.60"},
      {"measurement": "Proliferation Index ± S.D.", "setting": "[3]; Peptide T added Day 1, 10^-17 Mol/L", "result": "3.99 ± 0.18"},
      {"measurement": "Proliferation Index ± S.D.", "setting": "[3]; Peptide T added Day 1, 10^-19 Mol/L", "result": "6.15 ± 2.59"},
      {"measurement": "PBMC-mediated inhibition of Molt-4 proliferation", "setting": "[4]", "result": "remains unaffected"}
    ]}
  ]
}
